We go through 18 molecules from ChEMBL document CHEMBL3351656, “Discovery of novel 2-[2-(3-hydroxy-pyridin-2-yl)-thiazol-4-yl]-acetamide derivatives as HIF prolyl 4-hydroxylase inhibitors; SAR, synthesis and modeling evaluation” (Bioorg Med Chem Lett, 2014).

Values after ≈ are worked out from the molar mass of the structure shown.

This series in a line: Solubility of the compound at pH 7.4. It is filed as physicochemical. To be noted: buffer.
As for `Cc1sc(-c2ncc(C#N)cc2O)nc1CC(=O)NCCc1ccccn1`, the solubility is 78.4 µg/mL (≈ 207 µM).

Turning to `N#Cc1cnc(-c2nc(CC(=O)NCc3ccccc3)cs2)c(O)c1`, the concentration in solution (solubility) was 24.1 µg/mL (≈ 68.8 µM).

As for `N#Cc1cnc(-c2nc(CC(=O)NCC(=O)O)cs2)c(O)c1`, the solubility was found to be 106 µg/mL (≈ 332 µM).

For the molecule `CC(C)(NC(=O)Cc1csc(-c2ncc(C#N)cc2O)n1)C(=O)O`, the solubility amounted to 28.9 µg/mL (≈ 83.4 µM).

For `N#Cc1cnc(-c2nc(CC(=O)N[C@H](C(=O)O)c3ccccc3)cs2)c(O)c1`, the solubility is greater than 195 µg/mL.

The molecule `N#Cc1cnc(-c2nc(CC(=O)N[C@@H](C(=O)O)c3ccccc3)cs2)c(O)c1` registered a solubility greater than 195 µg/mL.

The molecule `N#Cc1cnc(-c2nc(CC(=O)N[C@@H](CO)c3ccccc3)cs2)c(O)c1` yielded a solubility greater than 188 µg/mL.

In turn, `N#Cc1cnc(-c2nc(CC(=O)N[C@H](CO)c3ccccc3)cs2)c(O)c1` displayed a solubility greater than 188 µg/mL.

`N#Cc1cnc(-c2nc(CC(=O)NCCc3ccccc3)cs2)c(O)c1`: the concentration in solution (solubility) came to 13.6 µg/mL (≈ 37.3 µM).

As to `N#Cc1cnc(-c2nc(CC(=O)NCCc3ccccn3)cs2)c(O)c1`, the solubility is greater than 181 µg/mL.

Take `N#Cc1cnc(-c2nc(CC(=O)NCCc3ccccn3)c(-c3ccccc3)s2)c(O)c1`: the concentration in solution (solubility) was 117 µg/mL (≈ 265 µM).

In the case of `Cc1c(C#N)cnc(-c2nc(CC(=O)NCCc3ccccn3)cs2)c1O`, the solubility stood at 11.2 µg/mL (≈ 29.5 µM).

In the case of `Cc1sc(-c2ncc(C#N)c(C)c2O)nc1CC(=O)NCCc1ccccn1`, the solubility worked out at 6.4 µg/mL (≈ 16.3 µM).

Consider `Cc1c(C#N)cnc(-c2nc(CC(=O)NCCc3ccccn3)c(-c3ccccc3)s2)c1O`, for which the solubility turned out to be 0.74 µg/mL (≈ 1.62 µM).

Take `CCNC(=O)Cc1nc(-c2ncc(C#N)c(C)c2O)sc1C`: the solubility was found to be 13.9 µg/mL (≈ 43.9 µM).

As for `N#Cc1cnc(-c2nc(CC(=O)N3CCCC3)cs2)c(O)c1`, the solubility was found to be 108 µg/mL (≈ 342 µM).

With `CCN(CC)CCNC(=O)Cc1csc(-c2ncc(C#N)c(C)c2O)n1`, the solubility was greater than 185 µg/mL.

In turn, `CCN(CC)CCNC(=O)Cc1nc(-c2ncc(C#N)c(C)c2O)sc1C` yielded a solubility of 85.9 µg/mL (≈ 222 µM).
